# Columns and labels:
# Type in all cases: cell-based
# [1] = system: NT-1 tobacco suspension cells treated with DSM-2 (v2) (pDAB3778); test: NT-1 tobacco cell transformation, selection on bialaphos or glufosinate ammonium
# Experimental: Four days prior to transformation, a 1 week old NT-1 tobacco suspension, which was being subcultured every 7 days, was subcultured to fresh medium by adding 2 ml of the NT-1 culture or 1 ml of packed cells into 40 ml NT-1 B media. The subcultured suspension was maintained in the dark at 25±1° C. on a shaker at 125 rpm.
# A 50% glycerol stock of Agrobacterium tumefaciens [strain LBA4404] harboring a binary vector of interest was used to initiate a liquid overnight culture by adding 20, 100, or 500 μl to 30 ml YEP liquid (10 g/L yeast extract, 10 g/L Peptone, 5 g/L NaCl, 0-10 g/L Sucrose) containing 50-100 mg/L spectinomycin. The bacterial culture was incubated in the dark at 28° C. in an incubator shaker at 150-250 rpm until the OD600 was 1.5+0.2. This took approximately 18-20 hrs.
# For each vector tested, 20-70 mL of 4-day old suspension cells were transferred into a sterile vessel, to which 500-1750 μl of Agrobacterium suspension at the proper OD was added. To ensure a uniform mixture was achieved, the cells were pipetted up and down 5 times with a 10 ml wide-bore pipet. The uniform suspension was then drawn up into a 25 ml barrel of a repeat pipetter and 250 μl of the suspension was dispensed per well into 24-well plates, continuing until the suspension was exhausted. The well plates were wrapped in parafilm and cultured in the dark at 25±1° C. without shaking for a 3 day co-cultivation.
# Following the co-cultivation, all excess liquid was removed from the individual wells with a 1 mL pipet tip, and remaining cells were resuspended in 1 ml NTC liquid (NT-1 B medium containing 500 mg/L carbenicillin, added after autoclaving). The contents of an individual well were dispersed across the entire surface of 100×25 mm selection plates using disposable transfer pipets. Selection media consisted of NTC media solidified with 8 g/l TC agar supplemented with 7.5 to 15 mg/L bialaphos or technical grade glufosinate ammonium, added after autoclaving. All selection plates, left unwrapped, were maintained in the dark at 28° C.
# Putative transformants appeared as small clusters of callus on a background of dead, non-transformed cells. Calli were isolated approximately 2-6 weeks post-transformation. Each callus isolate was transferred to its own 60×20 mm plate containing the same selection medium and allowed to grow for approximately 2 weeks before being submitted for analysis.
# [2] = system: Agrobacterium tumefaciens C58; test: Bacterial strain response to glufosinate on minimal media; set-up: key: +++ = Heavy Lawn Growth; ++ = Light lawn growth; + = patchy lawn growth; −− = No Growth; details: 48 hrs @ 25 C
# Experimental: (§1) Selected cell lines of Escherichia coli and Agrobacterium tumefaciens were inoculated on minimal media containing incrementally increasing concentrations of Glufosinate (BASTA). The cell lines; BL21-Star (DE3), Top10, DH5α, Agrobacterium tumefaciens C58, and Agrobacterium tumefaciens LBA4404s were initially grown up on complex media. The Escherichia coli strains were grown in LB and the Agrobacterium tumefaciens strains were grown in YEP. Five microliters of bacterial culture was inoculated and dispersed evenly onto minimal media plates containing various concentrations of glufosinate. The concentrations consisted of 0 μg/ml, 250 μg/ml, 500 μg/ml, 1000 μg/ml, 2000 μg/ml, and 4000 μg/ml of BASTA. In addition, the bacterial strains were inoculated onto a plate of complex media as a control—Agrobacterium tumefaciens strains were inoculated on YEP agar plates, and Escherichia coli strains were inoculated on LB agar plates. The plates containing the Escherichia coli strains were incubated at 37° C. for 24 hours. The plates containing the Agrobacterium tumefaciens strains were incubate at 25° C. for 48 hours. […] Table 7 illustrates the capability of the various strains to grow on minimal media containing glufosinate.
# [3] = system: Agrobacterium tumefaciens LBA4404s; test: as above; set-up: key: +++ = Heavy Lawn Growth; ++ = Light lawn growth; + = patchy lawn growth; −− = No Growth; details: 48 hrs @ 25 C
# Experimental: as §1
structure (smiles),measurement,setting,value
CP(=O)(O)CCC(N)C(=O)O (centres unmarked) [glufosinate],Transformation frequency (% of selection plates producing at least one callus) after coding region PCR,[1]; 7.5 mg/L selection agent,55.6%
same,Transformation frequency (% of selection plates producing at least one callus) after coding region PCR,[1]; 10 mg/L selection agent,50.0%
same,Transformation frequency (% of selection plates producing at least one callus) after coding region PCR,[1]; 12.5 mg/L selection agent,44.4%
same,Transformation frequency (% of selection plates producing at least one callus) after coding region PCR,[1]; 15 mg/L selection agent,38.9%
same,bacterial growth on minimal media,[2]; 250 μg/ml BASTA,+++
same,bacterial growth on minimal media,[2]; 500 μg/ml BASTA,+++
same,bacterial growth on minimal media,[2]; 1000 μg/ml BASTA,+++
same,bacterial growth on minimal media,[2]; 2000 μg/ml BASTA,++
same,bacterial growth on minimal media,[2]; 4000 μg/ml BASTA,−−
same,bacterial growth on minimal media,[3]; 250 μg/ml BASTA,+++
same,bacterial growth on minimal media,[3]; 500 μg/ml BASTA,++
same,bacterial growth on minimal media,[3]; 1000 μg/ml BASTA,++
same,bacterial growth on minimal media,[3]; 2000 μg/ml BASTA,+
same,bacterial growth on minimal media,[3]; 4000 μg/ml BASTA,−−

# — patent US20110195845A1, “Constructs for Expressing Herbicide Tolerance Genes, Related Plants, and Related Trait Combinations” (Dow AgroSciences LLC, priority 2008, published 2011)
